We go through two compounds from ChEMBL document CHEMBL5365397, “Synthesis and biological evaluation of biotinylated ZJ-101” (Bioorg Med Chem Lett, 2023).

In experiment [1] the test system is MCF7. Nature of the experiment: Antiproliferative activity against human MCF7 cells by Alamar Blue assay. Format: functional, cell-based.
Experiment [2] deals with SF-295. In words: Antiproliferative activity against human SF-295 cells by Alamar Blue assay. It counts as functional, cell-based.
Experiment [3] relates to MDA-MB-231. Nature of the experiment: Antiproliferative activity against human MDA-MB-231 cells by Alamar Blue assay. Format: functional, cell-based.
For experiment [4], the system named is MDA-MB-231. Nature of the experiment: Growth inhibition of human MDA-MB-231 cells measured after 48 hrs by SRB assay. Format: functional.
In experiment [5] the test system is SF-295. In words: Growth inhibition of human SF-295 cells measured after 48 hrs by SRB assay. It counts as functional.
The subject of experiment [6] is HCT-116. In words: Growth inhibition of human HCT-116 cells measured after 48 hrs by SRB assay. Format: functional, cell-based. Particulars: HCT-116, 48 h.
Experiment [7] relates to HT-29. In words: Growth inhibition of human HT-29 cells measured after 48 hrs by SRB assay. It counts as functional, cell-based. Particulars: HT-29, 48 h.

Consider `CC1=C/C=C/C(=O)O[C@@H]([C@H](C)[C@H](O)[C@@H](C)NC(=O)CCOCCOCCOCCOCCNC(=O)CCCC[C@@H]2SC[C@@H]3NC(=O)N[C@@H]32)[C@H](C)/C=C/C(C)=C/[C@H]2C=CCC[C@@]2(C)\C=C\1`, for which the concentration for half-maximal inhibition (IC50) in experiment [1], in experiment [2] and in experiment [3] was over 5000 nM throughout.
Regarding `CC(=O)N[C@H](C)[C@@H](O)[C@@H](C)[C@@H]1OC(=O)/C=C/C=C(C)\C=C\[C@]2(C)CCC=C[C@@H]2/C=C(C)/C=C/[C@H]1C`, the IC50 stood at 40.8 nM in experiment [1], 52.7 nM in experiment [6], 61.1 nM in experiment [3] and 7.5 nM in experiment [7]. Moreover, the GI50 in experiment [4] and in experiment [5] was under 10 nM each time.
